Results: patent US9616010B2, “Cosmetic composition comprising a ternary lipid association for controlling dryness of the skin” (PIERRE FABRE DERMO-COSMETIQUE, priority 2013, dated 2017)

Legend:
[1] = tested on: isolated stratum corneum; settings: Levi et al., Int J Cosmet Sci. 2010; 32: 276-93; cited from earlier work
[2] = tested on: isolated stratum corneum (SC) from human skin explants; experiment: Mechanical stress within isolated SC subjected to dehydration stress in an environmental chamber (substrate curvature)
Excerpt: These elements led the Applicant to use an in vitro model of isolated SC to study changes in mechanical properties as a function of hydration level. Measuring skin tension makes it possible to define a relationship between skin dryness and skin stress, and the appearance of cracks. Moreover, the use of this model makes it possible to know with a high degree of accuracy the effect of active agents on these mechanical measurements and, consequently, on the hydration state of the stratum corneum. (K. Levi, R. J. Weber, J. Q. Do and R. H. Dauskardt. International Journal of Cosmetic Science, 2010, 32, 276-293 Drying stress and damage processes in human stratum corneum) (K. Levi and R. H. Dauskardt. International Journal of Cosmetic Science, 2010, 32, 294-298 Application of substrate curvature method to differentiate drying stresses in topical coatings and human stratum corneum).
The mechanical approach used here consists in measuring the mechanical stress produced within SC that has been isolated and subjected to dehydration stress in an environmental chamber.
The SC specimen—from human skin explants—was isolated by enzymatic digestion. It was placed on a borosilicate slide to which it naturally adheres.
The SC, initially 100% hydrated, is then placed in an atmosphere with 7% air humidity. The SC then undergoes a progressive dehydration, during which measurements of SC tension are taken every 15 minutes for 8 hours using a stress measurement device. […] Given the differences that exist between its mechanical properties and those of the support (the slide), the latter bends. By means of this radius of curvature, measured with a laser interferometer, it is then possible to calculate the state of tension/stress from the Stoney equation. The initial data correspond to a measurement of the variation of the curvature of the unit (borosilicate slide+SC). It is possible to calculate the biomechanical stress parameters of the SC, such as tension, from knowledge of the biomechanical properties of the borosilicate slide, its thickness, and the thickness of the SC (see methodology FIG. 1; and bibliographical reference K. Levi, et al., IJCS 2010).
This first kinetics study makes it possible to know the behavior of untreated SC. Next, the unit (SC+slide) is returned to 100% air humidity for 2 hours and then incubated in the various treatments for 5 minutes. A […] film is deposited: using a spiral filmograph for liquid emollients and a slide for creams. At the end of this period the unit is again placed in 7% air humidity for the study of dehydration kinetics until stabilization of the measurements (generally 8 to 12 hours). […]

Question: What does the source list for isocetyl stearoyl stearate [compound 1]?
Answer: efficacy with respect to the shrinking of the stratum corneum specimen desiccated by a lack of moisture [1]: good efficacy; maximum stress within the SC ([2]; SC pretreated 5 minutes, then 7% air humidity, compared with untreated control, FIG. 3): momentarily greater than the control; time to reach minimum stress plateau ([2]; after the stress starts to fall, 7% air humidity, FIG. 3): 2 h; time after which the stress falls ([2]; hours of dehydration at 7% air humidity, FIG. 3): 3 h; shrinking of the skin induced by drying stress ([2]; topical application, during the first 4 hours, FIG. 1): increases
